In publication PMC4305006 (Chemistry & biology, 2014):
≈ marks a conversion by molar mass, not a printed value.

System: Mtb BioA over-expression strain (BioA-OE)
Type: cell-based, Mycobacterium tuberculosis

C=C(CCC(=O)O)c1nc2ccccc2s1 [Compound 13, 4-(benzothiazol-2-yl)pentenoic acid]
MIC90 BioA-OE: 4.7 µM (≈ 1.1 µg/mL)
